Measurements as given in patent US8674113B2, “Compounds” (Boehringer Ingelheim International GmbH, priority 2010, dated 2014).

Assays:
[1] = molecular target: recombinant human mPGES-1 (Homo sapiens (Human), UniProt O14684); assay: mPGES-1 enzyme assay (HTRF detection of PGE2); assay type: biochemical; details: recombinant human mPGES-1 microsomes, PGH2 2 μM, 60 seconds; read-out: mPGES-1 inhibitory effect IC50 in the enzyme assay
How it was run: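 Microsomes from E. coli expressing recombinant human mPGES-1 (~0.5 μg protein/well) in 0.1 M phosphate pH 7.4 with 2.5 mM GSH, pre-incubated with compound 25 min at room temperature. PGH2 (2 μM final) added, reaction stopped with FeCl2 after 60 s; PGE2 quantified by HTRF (665/620 ratio) against a calibration curve, IC50 by nonlinear regression after background subtraction.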

mPGES-1 in A549 cells = mPGES-1 in A549 cells (Homo sapiens (Human), UniProt O14684); assay: A549 cell-based assay (PGE2 formation, 50% human serum); details: IL-1β 5 ng/ml, 10 nM arachidonic acid, 20-24 h, read-out: mPGES-1 inhibitory effect IC50 in the cell assay
How it was run: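 A549 cells in F-12K with 50% human serum were stimulated 20-24 h with 5 ng/ml IL-1β and 10 nM arachidonic acid in presence of compound or vehicle. PGE2 in the cell-free medium was measured by HTRF, normalised to vehicle (100%). IC50 from 6-8 point titrations.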

Sequence of mPGES-1 in A549 cells (O14684 whole entry): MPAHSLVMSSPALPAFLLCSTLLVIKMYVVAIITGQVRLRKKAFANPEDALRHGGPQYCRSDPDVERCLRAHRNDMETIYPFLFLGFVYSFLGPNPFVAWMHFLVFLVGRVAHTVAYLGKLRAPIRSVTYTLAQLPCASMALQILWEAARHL
Sequence of recombinant human mPGES-1 (O14684 whole entry): as above

SMILES	IC50 [1] [nM]	IC50 (mPGES-1 in A549 cells) [nM]
Cn1c(Nc2c(Cl)ccc(CNC(=O)C(C)(C)C)c2Cl)nc2cc(C(=O)NCCC(F)(F)F)c(N3CCCC(C(F)(F)F)C3)cc21 (centres unmarked) [Example 81, N-(3,3,3-Trifluoropropyl)-2-{2,6-dichloro-3-[(2,2-dimethyl-propionylamino)-methyl]-phenylamino}-6-[3-trifluoromethyl-piperidinyl]-1-methyl-1H-benzimidazole-5-carboxylic acid amide]	4	< 1
Cn1c(Nc2c(Cl)ccc(CNC(=O)C(C)(C)C)c2Cl)nc2cc(C(=O)N[C@H]3CC[C@H](C(F)(F)F)CC3)c(N3CCC(O)(C(F)(F)F)CC3)cc21 [Example 82]	3	1
Cn1c(Nc2c(Cl)ccc(CNC(=O)C(C)(C)C)c2Cl)nc2cc(C(=O)N[C@H]3CC[C@H](C(F)(F)F)CC3)c(N3CCC(C)(O)C3)cc21 (some centres unmarked) [Example 83]	2	1.4
Cn1c(Nc2c(Cl)ccc(CNC(=O)C(C)(C)C)c2Cl)nc2cc(C(=O)N[C@H]3CC[C@H](C(F)(F)F)CC3)c(N3CCC(O)C3)cc21 (some centres unmarked) [Example 84]	3	16
Cn1c(Nc2c(Cl)ccc(CNC(=O)C(C)(C)C)c2Cl)nc2cc(C(=O)N[C@H]3CC[C@H](C(F)(F)F)CC3)c(NCCCO)cc21 [Example 85]	15	86
Cn1c(Nc2c(Cl)ccc(CNC(=O)C(C)(C)C)c2Cl)nc2cc(C(=O)N[C@H]3CC[C@H](C(F)(F)F)CC3)c(N3CC(C)(O)C3)cc21 [Example 86]	4	5
Cn1c(Nc2c(Cl)ccc(CNC(=O)C(C)(C)C)c2Cl)nc2cc(C(=O)N[C@H]3CC[C@H](C(F)(F)F)CC3)c(N3CC(O)C3)cc21 [Example 87]	2	8
CN(Cc1nccn1C)c1cc2c(cc1C(=O)N[C@H]1CC[C@H](C(F)(F)F)CC1)nc(Nc1c(Cl)ccc(CNC(=O)C(C)(C)C)c1Cl)n2C [Example 88]	2	1.5
Cn1c(Nc2c(Cl)ccc(CNC(=O)C(C)(C)C)c2Cl)nc2cc(C(=O)N[C@H]3CC[C@H](C(F)(F)F)CC3)c(N3CCCC(C(F)(F)F)C3)cc21 (some centres unmarked) [Example 89]	2	1
CN(c1cc2c(cc1C(=O)N[C@H]1CC[C@H](C(F)(F)F)CC1)nc(Nc1c(Cl)ccc(CNC(=O)C(C)(C)C)c1Cl)n2C)C1CCC1 [Example 91]	4	< 1
Cn1c(Nc2c(Cl)ccc(CNC(=O)C(C)(C)C)c2Cl)nc2cc(C(=O)N[C@H]3CC[C@H](C(F)(F)F)CC3)c(N3C4CCC3CC4)cc21 [Example 92]	2	1.4
Cn1c(Nc2c(Cl)ccc(CNC(=O)C(C)(C)C)c2Cl)nc2cc(C(=O)N[C@H]3CC[C@H](C(F)(F)F)CC3)c(N3CC4(COC4)C3)cc21 [Example 93]	3	17
Cn1c(Nc2c(Cl)ccc(CNC(=O)C(C)(C)C)c2Cl)nc2cc(C(=O)N[C@H]3CC[C@H](C(F)(F)F)CC3)c(N3CC4(CCC4)C3)cc21 [Example 94]	4	6
Cn1c(Nc2c(Cl)ccc(CNC(=O)C(C)(C)C)c2Cl)nc2cc(C(=O)N[C@H]3CC[C@H](C(F)(F)F)CC3)c(N3CC4CCCC43)cc21 (some centres unmarked) [Example 95]	2	7
Cn1c(Nc2c(Cl)ccc(CNC(=O)C(C)(C)C)c2Cl)nc2cc(C(=O)N[C@H]3CC[C@H](C(F)(F)F)CC3)c(N3CCC3)cc21 [Example 96]	16	21
COC1CN(c2cc3c(cc2C(=O)N[C@H]2CC[C@H](C(F)(F)F)CC2)nc(Nc2c(Cl)ccc(CNC(=O)C(C)(C)C)c2Cl)n3C)C1 [Example 98]	5	5
Cn1c(Nc2c(Cl)ccc(CNC(=O)C(C)(C)C)c2Cl)nc2cc(C(=O)N[C@H]3CC[C@H](C(F)(F)F)CC3)c(N3CC(OC(F)F)C3)cc21 [Example 99]	1	5

SMILES	IC50 [1] [nM]	IC50 (mPGES-1 in A549 cells) [nM]
Cn1c(Nc2c(Cl)ccc(CNC(=O)C(C)(C)C)c2Cl)nc2cc(C(=O)N[C@H]3CC[C@H](C(F)(F)F)CC3)c(N3CCC(C(F)(F)F)C3)cc21 (some centres unmarked) [Example 100]	3	1
Cn1c(Nc2c(Cl)ccc(CNC(=O)C(C)(C)C)c2Cl)nc2cc(C(=O)N[C@H]3CC[C@H](C(F)(F)F)CC3)c(N3CC4CCCC4C3)cc21 (some centres unmarked) [Example 101]	2	1.5
Cn1c(Nc2c(Cl)ccc(CNC(=O)C(C)(C)C)c2Cl)nc2cc(C(=O)N[C@H]3CC[C@H](C(F)(F)F)CC3)c(N3CC4COCC4C3)cc21 (some centres unmarked) [Example 102]	2	1.5
C#CCN(C)c1cc2c(cc1C(=O)N[C@H]1CC[C@H](C(F)(F)F)CC1)nc(Nc1c(Cl)ccc(CNC(=O)C(C)(C)C)c1Cl)n2C [Example 103, N-(trans-4-Trifluoromethyl-cyclohexyl)-2-{2,6-dichloro-3-[(2,2-dimethyl-propionylamino)-methyl]-phenylamino}-6-[N-methyl-N-propargylamino]-1-methyl-1H-benzimidazole-5-carboxylic acid amide]	1	< 1
COC(C)CN(C)c1cc2c(cc1C(=O)N[C@H]1CC[C@H](C(F)(F)F)CC1)nc(Nc1c(Cl)ccc(CNC(=O)C(C)(C)C)c1Cl)n2C (some centres unmarked) [Example 104]	2	1
CN(CCS(C)(=O)=O)c1cc2c(cc1C(=O)N[C@H]1CC[C@H](C(F)(F)F)CC1)nc(Nc1c(Cl)ccc(CNC(=O)C(C)(C)C)c1Cl)n2C [Example 105]	2	10
CC(O)CN(C)c1cc2c(cc1C(=O)N[C@H]1CC[C@H](C(F)(F)F)CC1)nc(Nc1c(Cl)ccc(CNC(=O)C(C)(C)C)c1Cl)n2C (some centres unmarked) [Example 106]	2	< 1
CN(CC1(C)CC1)c1cc2c(cc1C(=O)N[C@H]1CC[C@H](C(F)(F)F)CC1)nc(Nc1c(Cl)ccc(CNC(=O)C(C)(C)C)c1Cl)n2C [Example 107]	1	< 1
Cn1c(Nc2c(Cl)ccc(CNC(=O)C(C)(C)C)c2Cl)nc2cc(C(=O)N[C@H]3CC[C@H](C(F)(F)F)CC3)c(N3CCN(C4CC4)CC3)cc21 [Example 108]	1	< 1
CN(CC(C)(C)O)c1cc2c(cc1C(=O)N[C@H]1CC[C@H](C(F)(F)F)CC1)nc(Nc1c(Cl)ccc(CNC(=O)C(C)(C)C)c1Cl)n2C [Example 109]	2	1
CN(Cc1ccc(F)cc1)c1cc2c(cc1C(=O)N[C@H]1CC[C@H](C(F)(F)F)CC1)nc(Nc1c(Cl)ccc(CNC(=O)C(C)(C)C)c1Cl)n2C [Example 110, N-(trans-4-Trifluoromethyl-cyclohexyl)-2-{2,6-dichloro-3-[(2,2-dimethyl-propionylamino)-methyl]-phenylamino}-6-[N-methyl-N-(4-fluorobenzyl)amino]-1-methyl-1H-benzimidazole-5-carboxylic acid amide]	2	1.6
CN(CC(N)=O)c1cc2c(cc1C(=O)N[C@H]1CC[C@H](C(F)(F)F)CC1)nc(Nc1c(Cl)ccc(CNC(=O)C(C)(C)F)c1Cl)n2C [Example 111]	2	22
CN(CC#N)c1cc2c(cc1C(=O)N[C@H]1CC[C@H](C(F)(F)F)CC1)nc(Nc1c(Cl)ccc(CNC(=O)C(C)(C)C)c1Cl)n2C [Example 112, N-(trans-4-Trifluoromethyl-cyclohexyl)-2-{2,6-dichloro-3-[(2,2-dimethyl-propionylamino)-methyl]-phenylamino}-6-[N-methyl-N-cyanomethyl-amino]-1-methyl-1H-benzimidazole-5-carboxylic acid amide]	3	1
Cn1ccnc1CNc1cc2c(cc1C(=O)N[C@H]1CC[C@H](C(F)(F)F)CC1)nc(Nc1c(Cl)ccc(CNC(=O)C(C)(C)C)c1Cl)n2C [Example 113]	8	62
CN(c1cc2c(cc1C(=O)N[C@H]1CC[C@H](C(F)(F)F)CC1)nc(Nc1c(Cl)ccc(CNC(=O)C(C)(C)C)c1Cl)n2C)C1CCSC1 (stereo partly drawn) [Example 117, N-(trans-4-trifluoromethyl-cyclohexyl)-2-{2,6-dichloro-3-[(2,2-dimethyl-propionylamino)-methyl]-phenylamino}-6-[N-methyl-N-(tetrahydro-thiophen-3-yl)-amino]-1-methyl-1H-benzimidazole-5-carboxylic acid amide]	2	2
CN(c1cc2c(cc1C(=O)N[C@H]1CC[C@H](C(F)(F)F)CC1)nc(Nc1c(Cl)ccc(CNC(=O)C(C)(C)C)c1Cl)n2C)C1CC[S+]([O-])C1 (stereo partly drawn) [Example 118, N-(trans-4-Trifluoromethyl-cyclohexyl)-2-{2,6-dichloro-3-[(2,2-dimethyl-propionylamino)-methyl]-phenylamino}-6-[N-methyl-N-(1-oxo-tetrahydro-thiophen-3-yl)-amino]-1-methyl-1H-benzimidazole-5-carboxylic acid amide]	3	10
CN(c1cc2c(cc1C(=O)N[C@H]1CC[C@H](C(F)(F)F)CC1)nc(Nc1c(Cl)ccc(CNC(=O)C(C)(C)C)c1Cl)n2C)C1CCS(=O)(=O)C1 (stereo partly drawn) [Example 119, N-(trans-4-Trifluoromethyl-cyclohexyl)-2-{2,6-dichloro-3-[(2,2-dimethyl-propionylamino)-methyl]-phenylamino}-6-[N-methyl-N-(1,1-dioxo-tetrahydro-thiophen-3-yl)-amino]-1-methyl-1H-benzimidazole-5-carboxylic acid amide]	2	1
